In patent US20230256102A1, “COMPOSITES AND USES THEREOF” (YISSUM RESEARCH DEVELOPMENT COMPANY OF THE HEBREW …, priority 2019, published 2023):

How the values were obtained:
[1] = system: A. citrulli M6; test: Bactericidal (killing) activity of LAE@Cu composites in vitro; assay type: cell-based, Acidovorax citrulli; details: LAE at 1.25 ppm, 30 min
Description: Assessment of bactericidal activity of LAE @Cu composites in vitro: Bactericidal activity of LAE@Cu composites was tested by adding the composites to 50 ml-PBS suspensions containing ˜10^7 colony forming units (CFU)/ml of A. citrulli M6. The suspensions were incubated at 30° C. with shaking for 30 min. Then, the concentrations of viable bacteria were determined following plating of serial dilutions on nutrient agar (NA, Difco) plates.
Bacterial killing assay: The bactericidal (killing) activity of LAE@[Cu] composites at a concentration of 25 ppm (1.25 mg in 50 ml), were tested in PBS containing ˜107 (CFU)/mL. The suspensions were incubated at 30° C. with shaking for 30 min. Then, the viable bacteria were determined following plating of serial dilutions on NA (nutrient agar) plates. Controls included @[Cu], the composite-like compound without LAE, and the commercial bactericide, Kocide®, at the same concentrations.

[2] = system: A. citrulli M6; test: In planta assay, A. citrulli-melon pathosystem; assay type: in vivo, melon (cv. AN-305); details: 200 ppm @[Cu], 10 ppm LAE; 5 days after inoculation
Description: Assessment of the ability of the LAE @Cu composites to reduce disease: To assess the potential of LAE@Cu composites for management of bacterial plant diseases, we carried out experiments using the A. citrulli-melon pathosystem. In these experiments, the foliage of three-week-old plants of melon (cv. AN-305; Origene Seeds) were sprayed with LAE1.0@Cu composites at a concentration of 200 ppm. Additional treatments included spraying with 200 ppm of @Cu, 10 ppm of LAE (corresponding to the concentration of LAE in 200 ppm LAE×1.0@Cu) and the commercial bactericide Kocide, which was applied at the recommended concentration for management of the disease (2 mg/ml). As controls, foliage were sprayed with double distilled water (DDW). […] Disease severity of inoculated leaves was determined 5 days after inoculation, using the following scale: 0, no symptoms; 1, few minor lesions; 2, few small necrotic spots; 3, increased necrotic spots in less than 25% of the leaf area; 4, increased necrotic spots in 25 to 50% of the leaf area; and 5, increased necrotic spots in more than 50% of the leaf area and dead leaf. The data were statistically analyzed by one-way analysis of variance (ANOVA) and Tukey's honest significant difference (HSD) test.
In-planta assay: Melon plants (cv. AN-305; Origene Seeds) were grown in a growth chamber at 28° C. […] Disease severity was determined 5 days after inoculation.

## CCCCCCCCCCCC(=O)N[C@@H](CCCN=C(N)N)C(=O)OCC [LAE, Lauroyl arginate ethyl ester]
[1]
  reduction of the A. citrulli population: 2 orders of magnitude
[2]
  reduction of disease severity as compared with non-treated controls: 29%
